Measurements taken from patent US9316632B2, “Methods of screening chemotherapeutic agents and treating cancer” (Marshall University Research Corporation, priority 2009, dated 2016).

Tests used:
[1] = tested on: ependymoma cells grown in a monolayer (bulk cancer cells); experiment: MTT chemosensitivity assay, bulk cancer cells of the Example 1 ependymoma sample; assay type: cell-based, human; conditions: 1-hour pulse, MTT 24-hours after treatment, FIG. 5
Method: Single Cell Suspension and Primary Cell Culture. Single-cell suspensions from the ependymoma biopsy was prepared using the gentleMACS™ Dissociator (Miltenyi, Auburn, Calif.), and C Tubes using a standardized, semi-automated protocol based on a combination of mechanical tissue disruption and incubation with a 50% solution 0.025% trypsin and Accutase (Innovative Cell Technologies, San Diego, Calif.). Cells were serially plated in 24-well, 12-well, 6-well, 10-cm treated dishes and cultured to subconfluence in RPMI-1640 medium supplemented with 5% irradiated, heat inactivated, defined fetal bovine serum (Thermofisher/Hyclone), and 50 U of penicillin and 5 μg of streptomycin/mL of medium (Thermofisher/Mediatech).
(§1) Chemosensitivity assay. Sensitivity and resistance to chemotherapy was assessed using an MTT assay on 1×10^3 cells plated in 5 replicas into 96-well plates. Briefly, equal number of bulk of tumor cells grown in monolayer and cancer stem-like cells CD133(+) three-dimensionally grown in the bioreactor, were plated separately in 96-well dishes and incubated at 37° C. for 24-hours. Then the cells were challenged for a 1-hour pulse with a panel of anticancer drugs as indicated by the oncologist. Each anticancer drug was tested in a range of doses including the clinically relevant dose. An MTT assay was performed 24-hours following chemotherapy treatment to assess cell viability as previously described. A dose response chart was developed in which samples were scored as responsive (60-100% cell kill), moderately responsive (40-60% cell kill), low to moderate responsive (20-40% cell kill), low responsive (10-20% cell kill), and non-responsive (0-10% cell kill).
(§2) To assess the efficacy of various chemotherapeutic agents on the cancer cell sample collected in Example 2, an MTT assay was performed on […] plated in 5 replicas into 96-well plates. Briefly, equal number of the bulk cancer cells grown in a monolayer and the CD133(+) cancer stem-like cells grown in the HFB were plated separately in 96-well dishes and incubated at 37° C. for 24-hours. Then, each of the cell cultures were challenged for a 1-hour pulse with various chemotherapeutic agents, including cisplatin, oxaliplatin, arabinoside-C, VP-16, busulfan, methotrexate, CPT-11, and doxorubicin. Each chemotherapeutic agent was tested in a range of doses including their respective clinically relevant doses.
The MTT assay was then performed 24-hours following the chemotherapy treatment to assess cell viability. A dose response chart was developed in which samples were scored as responsive (60-100% cell kill), moderately responsive (40-60% cell kill), low to moderate responsive (20-40% cell kill), low responsive (10-20% cell kill), and non-responsive (0-10% cell kill). This assessment was independently performed for both the bulk cancer cells and the cancer stem-like cells of the ependymoma cancer cell sample.

[2] = tested on: CD133(+) cancer stem-like cells grown in the HFB (ependymoma); experiment: MTT chemosensitivity assay, cancer stem-like cells of the Example 1 ependymoma sample; assay type: cell-based, human; conditions: 1-hour pulse, MTT 24-hours after treatment, FIG. 5
Method: (§3) Three-Dimensional Bioreactor Cell Culture. A hydrodynamic focusing bioreactor (HFB) (Celdyne, Houston Tex.) was used as previously described to proliferate cancer stem-like cells. Culture media, oxygenation, speed, temperature and CO2 were kept consistently constant for ten days. In certain instances, cancer stem-like cells were cultured in the HFB and exposed for 2 to 6 hours with ozone (O3) levels at levels of 0.08 to 0.40 PPM to cause a fluctuation in the cellular redox environment (redox cycle). Ozone was generated with two OREC Model OZONEV1-O ozonizers (Ozone Research and Equipment Corp., Phoenix, Ariz.), with compressed air used as a source of oxygen, and the concentration of ozone within the chambers was monitored throughout the exposure with three Dasibi 1003 AH ambient-air ozone monitors (Dasibi Environmental Corp., Glendale, Calif.). Cells were then counted and 1×10^6 cells were placed in the rotating vessel set at 25 rpm with airflow set at 20% for […]. Cells were then removed and counted again using trypan blue exclusion to determine cellular viability and cell number and plated in 96 wells for chemosensitivity testing. The cells were also reacted with florescent antibodies for phenotypic characterization.
as §1
To then expand the immature cancer stem-like cell population of CD 133+ cells present within the ependymoma primary culture, the ependymoma cells were grown in a rotating vessel, as previously described. Briefly, 1×10^6 of the ependymoma cells from a monolayer culture were grown for ten days using a Hydrodynamic Focusing Bioreactor (HFB) (Celdyne, Houston, Tex.) at 25 rpm with airflow set at 20%, and culture media, oxygenation, speed, temperature and CO2 were kept consistently constant for ten day period. Following the ten day period, cells were then removed and counted again from the HFB, and trypan blue exclusion was used to determine cellular viability and cell number. The cells were also reacted with florescent antibodies for phenotypic characterization.
as §2

[3] = tested on: medulloblastoma cells; experiment: MTT assay, Example 5 medulloblastoma cells; assay type: cell-based, human; conditions: FIG. 15
Method: as §1

[4] = tested on: cancer stem-like cells (anaplastic ependymoma, WHO grade III); experiment: MTT assay, cancer stem-like cells, Example 2 anaplastic ependymoma; assay type: cell-based, human; conditions: FIG. 9
Method: as §3, §1
(§4) Similar to the experiments described herein above, the cancer cell sample was initially cultured as a suspension and the cancer cells were immunophenotyped by flow cytometer using anti-CD133 (Milteny Biotech, Auburn, Calif.), -CD34 (Milteny Biotech, Auburn, Calif.), -CD38 (Milteny Biotech, Auburn, Calif.), -CD44 (BD Bioscience, Sparks, Md.), -CD24 (Milteny Biotech, Auburn, Calif.), -CXCR4 (Milteny Biotech, Auburn, Calif.), -OCT3/4 (BD Bioscience, Sparks, Md.), and -Nanog (BD Bioscience, Sparks, Md.).
(§5) Then, to then expand the immature cancer stem-like cell population of CD133+ cells present within the ependymoma primary culture, the ependymoma cells were grown in a rotating vessel, as describe herein above and as previously described. To assess the efficacy of various chemotherapeutic agents on the cancer cell sample, an MTT assay was the performed as also described herein.

[5] = tested on: bulk cancer cells (anaplastic ependymoma, WHO grade III); experiment: MTT assay, bulk cancer cells, Example 2 anaplastic ependymoma; assay type: cell-based, human; conditions: FIG. 9
Method: as §1, §4, §5

[6] = tested on: cancer stem-like cells (IDH-1 negative glioblastoma, WHO grade IV); experiment: MTT assay, cancer stem-like cells, Example 4 IDH-1 negative glioblastoma; assay type: cell-based, human; conditions: FIG. 13
Method: as §3
(§6) Chemosensitivity assay. Sensitivity and resistance to chemotherapy was assessed using an MTT assay on 1×10^3 cells plated in 5 replicas into 96-well plates. […]

[7] = tested on: bulk cancer cells (IDH-1 negative glioblastoma, WHO grade IV); experiment: MTT assay, bulk cancer cells, Example 4 IDH-1 negative glioblastoma; assay type: cell-based, human; conditions: FIG. 13
Method: as §1

[8] = tested on: bulk cancer cells (IDH-1 negative glioblastoma); experiment: MTT assay, bulk cancer cells, Example 3 IDH-1 negative glioblastoma; assay type: cell-based, human; conditions: FIG. 11
Method: as §1

[9] = tested on: cancer stem-like cells (IDH-1 negative glioblastoma); experiment: MTT assay, cancer stem-like cells, Example 3 IDH-1 negative glioblastoma; assay type: cell-based, human; conditions: at the concentration tested, FIG. 11
Method: as §3, §6

[10] = tested on: intradural, extramedullary anaplastic diffuse spinal ependymoma, WHO grade III; experiment: Clinical course of the Example 1 subject under treatment; assay type: in vivo, human; conditions: recurring spinal ependymoma
[11] = tested on: cancer stem-like cells (reoccurrence of anaplastic ependymoma); experiment: MTT assay, cancer stem-like cells from the reoccurrence of the Example 1 ependymoma; assay type: cell-based, human; conditions: reoccurrence biopsy, FIG. 6
Method: as §3, §6

[12] = tested on: bulk cancer cells (reoccurrence of anaplastic ependymoma); experiment: MTT assay, bulk cancer cells from the reoccurrence of the Example 1 ependymoma; assay type: cell-based, human; conditions: reoccurrence biopsy, FIG. 6
Method: as §1

**Q.** How did the “sensitivity to chemotherapy (MTT cell viability)” value (from here on “sensitivity to chemotherapy”) [1] turn out when `CN(Cc1cnc2nc(N)nc(N)c2n1)c1ccc(C(=O)N[C@@H](CCC(=O)O)C(=O)O)cc1` [methotrexate] was run?
**A.** minimally to moderately responsive

**Q.** What about the “sensitivity to chemotherapy” value [2] of the same compound?
**A.** minimally to moderately responsive

**Q.** `COc1cc([C@@H]2c3cc4c(cc3[C@@H](O[C@@H]3O[C@@H]5CO[C@@H](C)O[C@H]5[C@H](O)[C@H]3O)[C@H]3COC(=O)[C@H]23)OCO4)cc(OC)c1O` [VP-16, etoposide] was tested. Which “sensitivity to chemotherapy” value [1] did it give?
**A.** completely not responsive

**Q.** What about the “effectiveness at treating the medulloblastoma cells (MTT)” value [3] of the same compound?
**A.** effective

**Q.** What about the “sensitivity to chemotherapy” value [2] of the same compound?
**A.** completely not responsive

**Q.** `O=NN(CCCl)C(=O)NC1CCCCC1` [lomustine] was tested. Which “sensitivity to chemotherapy” value [4] did it give?
**A.** not sensitive

**Q.** What about the “sensitivity to chemotherapy” value [5] of the same compound?
**A.** not sensitive

**Q.** How did the “sensitivity to chemotherapy” value [4] turn out when bevacizumab was run?
**A.** not sensitive

**Q.** What about the “sensitivity to chemotherapy” value [5] of the same compound?
**A.** not sensitive

**Q.** How did the “sensitivity to chemotherapy” value [1] turn out when `COc1cccc2c1C(=O)c1c(O)c3c(c(O)c1C2=O)C[C@@](O)(C(=O)CO)C[C@@H]3O[C@H]1C[C@H](N)[C@H](O)[C@H](C)O1` [doxorubicin] was run?
**A.** sensitive

**Q.** And the “sensitivity to chemotherapy” value [2]?
**A.** highly sensitive

**Q.** Which cell kill [4] does the source give for `N.N.[Cl][Pt][Cl]` [cisplatin] here?
**A.** 30%

**Q.** What about the “sensitivity to chemotherapy” value [1] of the same compound?
**A.** sensitive

**Q.** What about the cell kill [5] of the same compound?
**A.** 30%

**Q.** And the “sensitivity to chemotherapy” value [2]?
**A.** moderate chemosensitivity

**Q.** Which “sensitivity to chemotherapy” value [1] does the source give for `Nc1ccn([C@@H]2O[C@H](CO)[C@@H](O)[C@@H]2O)c(=O)n1` [arabinoside-C] here?
**A.** completely not responsive

**Q.** What about the “sensitivity to chemotherapy” value [2] of the same compound?
**A.** completely not responsive

**Q.** Which results are given for `O=C1[O][Pt]2([NH][C@@H]3CCCC[C@H]3[NH]2)[O]C1=O` [oxaliplatin]?
**A.** sensitivity to chemotherapy (MTT cell viability) [4]: not sensitive; sensitivity to chemotherapy (MTT cell viability) [1]: completely not responsive; sensitivity to chemotherapy (MTT cell viability) [5]: not sensitive; sensitivity to chemotherapy (MTT cell viability) [2]: completely not responsive

**Q.** `CCc1c2c(nc3ccc(OC(=O)N4CCC(N5CCCCC5)CC4)cc13)-c1cc3c(c(=O)n1C2)COC(=O)[C@]3(O)CC` [CPT-11, irinotecan] was tested. Which “sensitivity to chemotherapy” value [4] did it give?
**A.** not sensitive

**Q.** And the “sensitivity to chemotherapy” value [1]?
**A.** sensitive

**Q.** And the “sensitivity to chemotherapy” value [5]?
**A.** not sensitive

**Q.** And the “sensitivity to chemotherapy” value [2]?
**A.** moderate chemosensitivity

**Q.** `Cn1nnc2c(C(N)=O)ncn2c1=O` [temozolomide] was tested. Which cell kill [6] did it give?
**A.** 60%

**Q.** And the cell kill [7]?
**A.** 60%

**Q.** And the cell kill [8]?
**A.** 50%

**Q.** What about the “response score (MTT cell viability)” value [9] of the same compound?
**A.** non-responsive (non-responsive (0-10% cell kill))

**Q.** What about the “clinical response of the tumor to treatment” value [10] of the same compound?
**A.** no response

**Q.** With `CS(=O)(=O)OCCCCOS(C)(=O)=O` [busulfan] as the compound, how does the “sensitivity to chemotherapy” value [1] read?
**A.** minimally to moderately responsive

**Q.** And the “sensitivity to chemotherapy” value [2]?
**A.** minimally to moderately responsive

**Q.** Which cell kill [4] does the source give for `CNNCc1ccc(C(=O)NC(C)C)cc1` [procarbazine] here?
**A.** 30%

**Q.** What about the cell kill [5] of the same compound?
**A.** 30%

**Q.** For `S=C=NCc1ccccc1` [BITC, benzyl isothiocyanate], which “sensitivity to chemotherapy” value [11] is on record?
**A.** sensitive

**Q.** And the “sensitivity to chemotherapy” value [4]?
**A.** not sensitive

**Q.** And the “sensitivity to chemotherapy” value [5]?
**A.** not sensitive

**Q.** And the “sensitivity to chemotherapy” value [12]?
**A.** sensitive
